For orientation: IC50 means the concentration at which inhibition is half-maximal.

These results are taken from patent US20150297534A1, “METHODS AND COMPOSITIONS FOR THE MEDIATION OF NSAID-INDUCED REACTIONS” (NuBioPharma, LLC, priority 2014, published 2015).

Data set [1] has as its system PGE2 formation in human whole blood. As to the kind of experiment: PGE2 formation in LPS-stimulated human whole blood (in vitro incubation). The format is cell-based. To be noted: LPS 10 µg/ml, 18 hours; for inhibition of PGE2 formation: alone or in combination; for inhibition of PGE2 compared with 6-keto PGF1α formation (FIG. 1): varied concentrations, compound alone. As for the experimental part:
Determination of PGE2 and 6-keto PGF1α Formation in Human Whole Blood: Peripheral blood from healthy adult volunteers, who had not received any medication for at least 2 weeks under informed consent, was obtained by venipuncture and collected in a vacutainer blood collection tube containing heparin. Aliquots of whole blood (0.8 ml) were mixed with aspirin (50 μM) and volume was adjusted to 1 ml with PBS containing 6 mM glucose. The blood was incubated with the indicated compounds for 5 mins. at room temperature; and then stimulated with lipopolysaccharide (10 μg/ml) for 18 h at 37° C. Prostanoid formation was stopped on ice and the samples were centrifuged (2300 g, 10 min, 4° C.), and 6-keto PGF1α was quantified in the supernatant using High Sensitivity ELISA Kit for 6-keto PGF1α according to the manufacturer's protocols (Calbiochem). PGE2 was determined after solid-phase extraction, RP-HPLC and an ELISA according to the procedures of Koeberle et al. [J Pharmacol Exp Ther. 2008; 326(3):975-82].
Synergistic interaction between compounds was analyzed by the sensitization method (Harvey, R. J., J. Theor. Biol. 74: 411-437, 1978). Briefly, sensitization is measured as the ratio between observed and expected inhibition of PGE2. The expected level of activity (Ae) is calculated by Aβ=1−((1−A1)*(1−A2)) (^3) where A1 and A2 are the activities of drugs 1 and 2 alone at the concentration used in the combination (Harvey, R. J., J. Theor. Biol. 74: 411-437, 1978).

The subject of data set [2] is IL-1β. The data set is described as follows: IL-1β in LPS-stimulated human whole blood (in vitro incubation). The format is cell-based. To be noted: whole human blood stimulated with LPS (FIG. 5); read-out: suppression of IL-1 beta, IC50. The method, then:
(§1) Determination of Inflammatory Cytokines (IL-1β & TNF-α) in Human Whole Blood: Blood from healthy adult volunteers was obtained in vacutainer blood collection tubes containing heparin as described above. Aliquots of whole blood (0.2 ml) were diluted with serum-free medium (RPMI-SF) in 24-well culture plates and volume was adjusted to 1 ml. The blood was incubated with the indicated compounds for 5 minutes at room temperature, and then stimulated with lipopolysaccharide (10 μg/ml) for 6 h at 37° C. with 5% CO2. Reaction was stopped on ice, the samples were centrifuged (2300 g, 10 mins., 4° C.), and of Inflammatory Cytokines IL-1β& TNF-α were estimated in the supernatant using High Sensitivity ELISA Kits according to the manufacturer's protocols (R&D Biosystems).

Data set [3] deals with TNF-α. As to the kind of experiment: TNF-α in LPS-stimulated human whole blood (in vitro incubation). To be noted: whole human blood stimulated with LPS (FIG. 4). The data set is classed as cell-based. The method, then:
as §1

In data set [4] the test system is PGE2. As to the kind of experiment: Healthy volunteer crossover study: PGE2 production in LPS-stimulated blood after oral dosing. The format is in vivo, human. Particulars: LPS stimulation. The method, then:
Peripheral blood from healthy adult volunteers, who had not received any medication for at least 2 weeks under informed consent, was obtained by venipuncture and collected in a vacutainer blood collection tube containing heparin. Aliquots of whole blood (0.8 ml) were mixed with aspirin (50 μM) and volume was adjusted to 1 ml with PBS containing 6 mM glucose. The blood was incubated with the indicated compounds for 5 mins. at room temperature; and then stimulated with lipopolysaccharide (10 μg/ml) for 18 h at 37° C. […] PGE2 was determined after solid-phase extraction, RP-HPLC and an ELISA according to the procedures of Koeberle et al. [J Pharmacol Exp Ther. 2008; 326(3):975-82]. Human Healthy Volunteer Clinical Study: Volunteers with acute or chronic diseases, medical history of gastrointestinal ulcers or allergy to NSAIDs were not included. Volunteers were not permitted to receive any NSAIDs for 2 weeks before and throughout the duration of the study. The study was conducted in an open-label, crossover design with a seven-day washout period between each treatment. […] Administration of the study medication was supervised by the investigator to ensure that the drug had been swallowed. […] An aliquot of blood was used for determination of PGE2 and TNF-α after LPS stimulation as described above. […] A Blood sample (6 ml), immediately prior to dosing and at 105 minutes after dosing was obtained as described above. […] A blood sample (6 ml), immediately prior to dosing and at 105 min after dosing was obtained as described above.

The test system of data set [5] is TNF-α. The data set is described as follows: Healthy volunteer study: TNF-α in LPS-stimulated blood after ibuprofen dosing. To be noted: volunteer 1; single oral dose 400 mg ibuprofen; blood 65 minutes after dosing, LPS stimulation (FIG. 3). The format is in vivo, human. As for the experimental part: as §1
Human Healthy Volunteer Clinical Study: Volunteers with acute or chronic diseases, medical history of gastrointestinal ulcers or allergy to NSAIDs were not included. Volunteers were not permitted to receive any NSAIDs for 2 weeks before and throughout the duration of the study. The study was conducted in an open-label, crossover design with a seven-day washout period between each treatment. Volunteer 1 was given a single oral dose of 400 mg of ibuprofen (Baby Advil Suspension) with 240 mL of water. Administration of the study medication was supervised by the investigator to ensure that the drug had been swallowed. […]

Data set [6] in a line: Healthy volunteer study: total plasma concentration of ibuprofen by HPLC. The data set is classed as in vivo, human. Particulars: SE in parentheses; for concentration at 105 min: plasma. The method, then:
Human Healthy Volunteer Clinical Study: Volunteers with acute or chronic diseases, medical history of gastrointestinal ulcers or allergy to NSAIDs were not included. Volunteers were not permitted to receive any NSAIDs for 2 weeks before and throughout the duration of the study. The study was conducted in an open-label, crossover design with a seven-day washout period between each treatment. Volunteer 1 was given a single oral dose of 400 mg of ibuprofen (Baby Advil Suspension) with 240 mL of water. […] A Blood sample (6 ml), obtained via an indwelling catheter inserted into an arm vein, and was collected into a tube containing heparin immediately prior to an ibuprofen dosing and at the following times thereafter: 65, 105, and 115 mins. after dosing. An aliquot of blood was used for determination of PGE2 and TNF-α after LPS stimulation as described above. Plasma was separated by centrifugation at 1000 g for 10 minutes at room temperature from the remaining blood for ibuprofen assay. After seven days (washout period), the same volunteer was given a single oral dose of 100 mg ibuprofen (Baby Advil Suspension) with 240 mL of water. A 6.0 mL blood sample for the determination of PGE2 and TNF-α after LPS stimulation and for the estimation of plasma levels of ibuprofen were drawn into tubes through an indwelling cannula before dosing and at 75, 125, and 155 mins. after dosing.
Total plasma concentrations of ibuprofen were determined by high-performance liquid chromatography (HPLC.) system that consisted of a Model 510 pump, a Model 486 variable wavelength UV detector and a computer loaded with the Millenium software, all from Waters Associates (Milford, Mas). To 100 μl of plasma was added 100 μl of internal standard solution (naproxen 10 μg/ml in 65% methanol and 1% acetic acid) followed by […]. Following vortex-mixing (30 s) and centrifugation (1000 g, 5 mins.), the supernatant was evaporated to dryness, and reconstituted in 100 μl of 65% methanol and 1% acetic acid immediately prior to injection onto a reversed phase column (ρBondaPak C18) eluted with methanol:1% acetic acid (65:35), pumped at 1.0 ml min. The column eluent was monitored at 210 nm. The height of the ibuprofen peak was divided by the height of the internal standard peak and this ratio was used to determine ibuprofen concentrations from a standard curve of ibuprofen.
A Blood sample (6 ml), immediately prior to dosing and at 105 minutes after dosing was obtained as described above. Production of PGE2, 6-keto PGF1α and TNF-α after LPS stimulation and plasma concentrations were determined as described above.
A blood sample (6 ml), immediately prior to dosing and at 105 min after dosing was obtained as described above. Production of PGE2, 6-keto PGF1α and TNF-α after LPS stimulation and plasma concentrations were determined as described above.

Data set [7] has as its system 6-keto PGF1α. The data set is described as follows: Healthy volunteer crossover study: 6-keto PGF1α production in LPS-stimulated blood after oral dosing. The format is in vivo, human. Particulars: single oral dose, blood 105 min after dosing, LPS stimulation, SE in parentheses. The method, then: Peripheral blood from healthy adult volunteers, who had not received any medication for at least 2 weeks under informed consent, was obtained by venipuncture and collected in a vacutainer blood collection tube containing heparin. Aliquots of whole blood (0.8 ml) were mixed with aspirin (50 μM) and volume was adjusted to 1 ml with PBS containing 6 mM glucose. The blood was incubated with the indicated compounds for 5 mins. at room temperature; and then stimulated with lipopolysaccharide (10 μg/ml) for 18 h at 37° C. […] PGE2 was determined after solid-phase extraction, RP-HPLC and an ELISA according to the procedures of Koeberle et al. [J Pharmacol Exp Ther. 2008; 326(3):975-82]. […] A Blood sample (6 ml), immediately prior to dosing and at 105 minutes after dosing was obtained as described above. […] A blood sample (6 ml), immediately prior to dosing and at 105 min after dosing was obtained as described above.

Data set [8] has as its system gastric ulcers. Particulars: ibuprofen 2400 mg/day, daily use for 24 weeks, arthritis patients; cited from earlier work.
Setting [9] is: curcumin 10 µM, ibuprofen 20 µM.
Where [10] appears, read: Human Volunteer 1, single oral dose, ibuprofen 50 mg (curcumin 200 mg, phosphatidylcholine 400 mg where included), 105 min after dosing.
Setting [11] is: Human Volunteer 2, single oral dose, ibuprofen 40 mg (curcumin 200 mg, phosphatidylcholine 400 mg where included), 105 min after dosing.

Turning to `COc1cc(/C=C/C(=O)CC(=O)/C=C/c2ccc(O)c(OC)c2)ccc1O` [Curcumin], the “inhibition of PGE2 formation” value is on record as “did not inhibit PGE2 formation” in data set [1] (curcumin 3 µM, ibuprofen 4 µM) and “no detectable inhibition” in data set [1] (setting [9]). Further, the “inhibition of PGE2 compared with 6-keto PGF1α formation (FIG. 1)” value in data set [1] is reported as “inhibited PGE2 more potently than 6-keto PGF1α”. Further, in data set [2], the IC50 was found to be 14 µM. In addition, in data set [3] (curcumin 10 µM co-incubated with ibuprofen 20 µM), the “suppression of ibuprofen-induced stimulation of TNF-α” value is “suppressed the deleterious stimulation of TNF-α”.

As for `CC(C)Cc1ccc(C(C)C(=O)O)cc1` (stereo not shown) [Ibuprofen], the “PGE2 (% inhibition)” value in data set [4] (Human Volunteer 1, single oral dose ibuprofen 100 mg, SE in parentheses) is listed as 71 % inhibition; in data set [4] (Human Volunteer 1, single oral dose ibuprofen 400 mg, SE in parentheses), 88 (2) % inhibition; in data set [4] (Human Volunteer 1, single oral dose ibuprofen 400 mg, SE in parentheses, listed as ibuprofen), “about 90 % inhibition”; in data set [4] (Human Volunteer 1, single oral dose, ibuprofen 50 mg (curcumin 200 mg, phosphatidylcholine 400 mg where included), blood 105 min after dosing, SE of 3 measurements in parentheses), 56 (3) % inhibition; in data set [4] (Human Volunteer 2, single oral dose, ibuprofen 40 mg (curcumin 200 mg, phosphatidylcholine 400 mg where included), blood 105 min after dosing, SE in parentheses) it was 29 % inhibition. In addition, the “inhibition of PGE2 formation” value is listed as “did not inhibit PGE2 formation” in data set [1] (curcumin 3 µM, ibuprofen 4 µM) and 38% in data set [1] (setting [9]). In data set [1], the “inhibition of PGE2 compared with 6-keto PGF1α formation (FIG. 1)” value was “inhibited the formation of both the prostanoids PGE2 and 6-keto PGF1α, to about the same extent”. Moreover, the “increase in TNF-α after ibuprofen dosing” value in data set [5] worked out at 3.5 fold. The “Plasma ibuprofen (ug/ml)” value in data set [6] (Human Volunteer 1, single oral dose ibuprofen 100 mg) is listed as 3.0 (0.5) ug/ml; in data set [6] (Human Volunteer 1, single oral dose ibuprofen 400 mg), 44.0 (3.0) ug/ml; in data set [6] (setting [10]) it was 1.7 (0.15) ug/ml; in data set [6] (setting [11]), 0.42 (0.06) ug/ml. In addition, in data set [6] (Human Volunteer 1, single oral dose ibuprofen 100 mg, listed as ibuprofen), the “Plasma ibuprofen” value was 3.0 µg/mL. In addition, the concentration at 105 min in data set [6] (setting [10]) is 1700 ng/mL; in data set [6] (setting [11]), 420 ng/mL. Moreover, the “6-keto PGF1α (% inhibition)” value in data set [7] (Human Volunteer 1, ibuprofen 50 mg (curcumin 200 mg, phosphatidylcholine 400 mg where included)) is on record as 61 (6) % inhibition; in data set [7] (Human Volunteer 2, ibuprofen 40 mg (curcumin 200 mg, phosphatidylcholine 400 mg where included)), 35 % inhibition. Besides, the “stimulation of TNF-α” value in data set [3] (ibuprofen 20 µM and 100 µM alone) is “dose-dependent stimulation of TNF-α”. For the same molecule, the “incidence of gastric ulcers” value in data set [8] is 22.9%.
